Laboratory results published in article PMC7377239, “Cardiovascular Effects of Polychlorinated Biphenyls and Their Major Metabolites” (Environmental Health Perspectives, 2020).
Structures can show the parent of a compound that is named as a salt. Where two headings read alike, the source gives them in different places.

Tests used:
HUVECs = assay: Tube formation (tubulogenesis) assay in HUVECs, 18 h; assay type: cell-based, human; conditions: Homo sapiens, HUVEC, 18 h; for activity at 0.1 µM: 0.10 µM
In short: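 HUVECs (passage 1–5) seeded on reduced-growth-factor basement membrane and exposed to compounds overnight at 37°C, 5% CO2, in 2× maintenance medium with 12.5 ng/mL VEGF; 0.5% DMSO vehicle. Calcein AM-stained tube networks imaged and analysed; vehicle-normalized readouts fit to four-parameter logistic, POD set at one SD of vehicle means.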

[1] = system: iCell endothelial cells (human iPSC-derived ECs); assay: High-content imaging cytotoxicity in iCell endothelial cells, 24 h; assay type: cell-based; conditions: Homo sapiens, Endothelial cell, 24 hr; for viability at 0.1 µM / activity at 0.1 µM: 0.10 µM
In short: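 Readouts were vehicle-normalised and fitted to a four-parameter logistic model. POD was set at one SD beyond 0.5% DMSO control means, and 100 µM was assigned when no response was seen. Cells were monolayers of iCell endothelial cells imaged after 24 h compound exposure using nuclear, mitochondrial and calcein dyes.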

[2] = HUVECs, 0.00 µM = 100.00, read-out: huvec.mtl.18hr
[3] = HUVECs, 0.00 µM = 100.00, read-out: huvec.tlps.18hr
[4] = HUVECs, 0.00 µM = 100.00, read-out: huvec.tta.18hr
[5] = HUVECs, 0.00 µM = 100.00, read-out: huvec.ttl.18hr
[6] = iPSC-EC, 0.00 µM control = 100.00, read-out: endo.cyto.24hr
[7] = iPSC-EC, 0.00 µM control = 100.00, read-out: endo.mito.24hr
[8] = iPSC-EC, 0.00 µM control = 100.00, read-out: endo.mitoint.24hr
[9] = iPSC-EC, 0.00 µM control = 100.00, read-out: endo.nma.24hr
[10] = iPSC-EC, 0.00 µM control = 100.00, read-out: endo.tc.24hrs
[11] = tube formation mtl, read-out: POD huvec.mtl.18hr
[12] = tube formation tlps, read-out: POD huvec.tlps.18hr
[13] = tube formation tta, read-out: POD huvec.tta.18hr
[14] = tube formation ttl, read-out: POD huvec.ttl.18hr
[15] = endothelial cells (endo), cyto, read-out: POD endo.cyto.24hr
[16] = endothelial cells (endo), mito, read-out: POD endo.mito.24hr
[17] = endothelial cells (endo), mitoint, read-out: POD endo.mitoint.24hr
[18] = endothelial cells (endo), nma, read-out: POD endo.nma.24hr
[19] = endothelial cells (endo), tc, read-out: POD endo.tc.24hr

How did the activity at 0.01 µM (HUVECs; [2]) turn out when `COc1ccc(-c2ccc(Cl)cc2)cc1` [4'-OMe PCB3] was run?
Its activity at 0.01 µM is 112%.

What about the activity at 0.01 µM (HUVECs; [3]) of the same molecule?
Its activity at 0.01 µM is 133%.

What about the activity at 0.01 µM (HUVECs; [4]) of the same molecule?
The activity at 0.01 µM was 123%.

What about the activity at 0.01 µM (HUVECs; [5]) of the same molecule?
The activity at 0.01 µM was 113%.

What about the activity at 0.1 µM (HUVECs; [2]) of the same molecule?
Its activity at 0.1 µM is 111%.

And the activity at 0.1 µM (HUVECs; [3])?
The activity at 0.1 µM was 139%.

And the activity at 0.1 µM (HUVECs; [4])?
The activity at 0.1 µM was 131%.

And the activity at 0.1 µM (HUVECs; [5])?
The activity at 0.1 µM was 125%.

What about the activity at 1 µM (HUVECs; [2]) of the same molecule?
The activity at 1 µM was 103%.

And the activity at 1 µM (HUVECs; [3])?
The activity at 1 µM was 128%.

What about the activity at 1 µM (HUVECs; [4]) of the same molecule?
The activity at 1 µM was 116%.

What about the activity at 1 µM (HUVECs; [5]) of the same molecule?
Its activity at 1 µM is 111%.

What about the activity at 10 µM (HUVECs; [2]) of the same molecule?
The activity at 10 µM was 81.4%.

What about the activity at 10 µM (HUVECs; [3]) of the same molecule?
The activity at 10 µM was 122%.

What about the activity at 10 µM (HUVECs; [4]) of the same molecule?
The activity at 10 µM was 75.2%.

And the activity at 10 µM (HUVECs; [5])?
Its activity at 10 µM is 75.8%.

And the activity at 100 µM (HUVECs; [2])?
The activity at 100 µM was 58.6%.

And the activity at 100 µM (HUVECs; [3])?
Its activity at 100 µM is 37.2%.

What about the activity at 100 µM (HUVECs; [4]) of the same molecule?
The activity at 100 µM was 51.7%.

What about the activity at 100 µM (HUVECs; [5]) of the same molecule?
The activity at 100 µM was 48.9%.

What about the minimal effective concentration (HUVECs; HUVECs, top concentration 100.00 µM, read-out: huvec.mtl.18hr POD) of the same molecule?
The minimal effective concentration was 7.13 µM.

What about the minimal effective concentration (HUVECs; HUVECs, top concentration 100.00 µM, read-out: huvec.tlps.18hr POD) of the same molecule?
Its minimal effective concentration is 49.5 µM.

And the minimal effective concentration (HUVECs; HUVECs, top concentration 100.00 µM, read-out: huvec.tta.18hr POD)?
The minimal effective concentration was 8.82 µM.

And the minimal effective concentration (HUVECs; HUVECs, top concentration 100.00 µM, read-out: huvec.ttl.18hr POD)?
The minimal effective concentration was 7.82 µM.

And the viability at 0.01 µM [1, 6]?
Its viability at 0.01 µM is 93.4%.

And the activity at 0.01 µM [1, 7]?
Its activity at 0.01 µM is 93.4%.

What about the activity at 0.01 µM [1, 8] of the same molecule?
The activity at 0.01 µM was 107%.

And the activity at 0.01 µM [1, 9]?
The activity at 0.01 µM was 105%.

What about the viability at 0.01 µM [1, 10] of the same molecule?
The viability at 0.01 µM was 93.4%.

What about the viability at 0.1 µM [1, 6] of the same molecule?
Its viability at 0.1 µM is 103%.

And the activity at 0.1 µM [1, 7]?
Its activity at 0.1 µM is 103%.

And the activity at 0.1 µM [1, 8]?
Its activity at 0.1 µM is 99.7%.

What about the activity at 0.1 µM [1, 9] of the same molecule?
The activity at 0.1 µM was 98.5%.

And the viability at 0.1 µM [1, 10]?
The viability at 0.1 µM was 103%.

What about the viability at 1 µM [1, 6] of the same molecule?
Its viability at 1 µM is 95.6%.

And the activity at 1 µM [1, 7]?
Its activity at 1 µM is 96%.

And the activity at 1 µM [1, 8]?
Its activity at 1 µM is 102%.

And the activity at 1 µM [1, 9]?
Its activity at 1 µM is 102%.

What about the viability at 1 µM [1, 10] of the same molecule?
Its viability at 1 µM is 95.6%.

What about the viability at 10 µM [1, 6] of the same molecule?
Its viability at 10 µM is 108%.

And the activity at 10 µM [1, 7]?
Its activity at 10 µM is 109%.

And the activity at 10 µM [1, 8]?
Its activity at 10 µM is 107%.

What about the activity at 10 µM [1, 9] of the same molecule?
Its activity at 10 µM is 95%.

What about the viability at 10 µM [1, 10] of the same molecule?
The viability at 10 µM was 108%.

And the viability at 100 µM [1, 6]?
Its viability at 100 µM is 93.3%.

And the activity at 100 µM [1, 7]?
Its activity at 100 µM is 93.7%.

What about the activity at 100 µM [1, 8] of the same molecule?
Its activity at 100 µM is 119%.

What about the activity at 100 µM [1, 9] of the same molecule?
Its activity at 100 µM is 99.7%.

What about the viability at 100 µM [1, 10] of the same molecule?
The viability at 100 µM was 93.5%.

And the minimal effective concentration ([1]; iPSC-EC, top concentration 100.00 µM, read-out: endo.cyto.24hr POD)?
The minimal effective concentration was 100 µM.

What about the minimal effective concentration ([1]; iPSC-EC, top concentration 100.00 µM, read-out: endo.mito.24hr POD) of the same molecule?
Its minimal effective concentration is 100 µM.

What about the minimal effective concentration ([1]; iPSC-EC, top concentration 100.00 µM, read-out: endo.mitoint.24hr POD) of the same molecule?
Its minimal effective concentration is 20.5 µM.

And the minimal effective concentration ([1]; iPSC-EC, top concentration 100.00 µM, read-out: endo.nma.24hr POD)?
Its minimal effective concentration is 100 µM.

And the minimal effective concentration ([1]; iPSC-EC, top concentration 100.00 µM, read-out: endo.tc.24hrs POD)?
The minimal effective concentration was 100 µM.

How did the minimal effective concentration (HUVECs; [11]) turn out when `Oc1ccccc1-c1ccc(Cl)cc1` [2'-OH-PCB 3] was run?
The minimal effective concentration was 100 µM.

What about the minimal effective concentration (HUVECs; [12]) of the same molecule?
Its minimal effective concentration is 0.57 µM.

And the minimal effective concentration (HUVECs; [13])?
Its minimal effective concentration is 100 µM.

And the minimal effective concentration (HUVECs; [14])?
The minimal effective concentration was 100 µM.

And the minimal effective concentration [1, 15]?
Its minimal effective concentration is 44.3 µM.

What about the minimal effective concentration [1, 16] of the same molecule?
The minimal effective concentration was 44.3 µM.

And the minimal effective concentration [1, 17]?
Its minimal effective concentration is 100 µM.

What about the minimal effective concentration [1, 18] of the same molecule?
Its minimal effective concentration is 1.82 µM.

What about the minimal effective concentration [1, 19] of the same molecule?
The minimal effective concentration was 68.2 µM.

What does the source list for `O=S(=O)(O)Oc1ccc(-c2cccc(Cl)c2)cc1Cl` [4-PCB 11 sulfate]?
minimal effective concentration (HUVECs; [11]): 14.3 µM; minimal effective concentration (HUVECs; [12]): 27.2 µM; minimal effective concentration (HUVECs; [13]): 100 µM; minimal effective concentration (HUVECs; [14]): 100 µM; minimal effective concentration [1, 15]: 100 µM; minimal effective concentration [1, 16]: 100 µM; minimal effective concentration [1, 17]: 100 µM; minimal effective concentration [1, 18]: 100 µM; minimal effective concentration [1, 19]: 100 µM
